Like-named read-outs stand apart in the source and are kept apart here.
Experiments:
[1] = tested on: pERK, pAKT, pS6 (EGFR sub-signal) in Ba/F3 Del19/T790M/C797S cell line; test: EGFR sub-signal activity (pERK, pAKT, pS6) alone or in combination with cetuximab; assay type: cell-based; settings: for activity in pERK, pAKT, pS6 (EGFR sub-signal) when administered alone: 30, 100, 300, 1000 nM alone; for sub-signal activity when administered in combination with cetuximab: 30, 100, 300, 1000 nM plus 10 μg cetuximab; for sub-signal activity compared with brigatinib in combination with cetuximab: vs brigatinib plus cetuximab
Description: In addition, when administering each of brigatinib, the compounds of Examples 10 and 11 of the present invention in 30, 100, 300, 1000 nM alone or in combination with 10 μg of cetuximab, the sub-signal activity on a/F3 Del19/T790M/C797S cell line was evaluated and the results are shown in FIGS. 5 to 7.

EGFR wt. = EGFR wt. (Homo sapiens (Human), UniProt P00533); test: HTRF enzyme assay, wild-type EGFR; assay type: biochemical; settings: recombinant enzyme
Sequence of EGFR wt. (P00533 25-1210): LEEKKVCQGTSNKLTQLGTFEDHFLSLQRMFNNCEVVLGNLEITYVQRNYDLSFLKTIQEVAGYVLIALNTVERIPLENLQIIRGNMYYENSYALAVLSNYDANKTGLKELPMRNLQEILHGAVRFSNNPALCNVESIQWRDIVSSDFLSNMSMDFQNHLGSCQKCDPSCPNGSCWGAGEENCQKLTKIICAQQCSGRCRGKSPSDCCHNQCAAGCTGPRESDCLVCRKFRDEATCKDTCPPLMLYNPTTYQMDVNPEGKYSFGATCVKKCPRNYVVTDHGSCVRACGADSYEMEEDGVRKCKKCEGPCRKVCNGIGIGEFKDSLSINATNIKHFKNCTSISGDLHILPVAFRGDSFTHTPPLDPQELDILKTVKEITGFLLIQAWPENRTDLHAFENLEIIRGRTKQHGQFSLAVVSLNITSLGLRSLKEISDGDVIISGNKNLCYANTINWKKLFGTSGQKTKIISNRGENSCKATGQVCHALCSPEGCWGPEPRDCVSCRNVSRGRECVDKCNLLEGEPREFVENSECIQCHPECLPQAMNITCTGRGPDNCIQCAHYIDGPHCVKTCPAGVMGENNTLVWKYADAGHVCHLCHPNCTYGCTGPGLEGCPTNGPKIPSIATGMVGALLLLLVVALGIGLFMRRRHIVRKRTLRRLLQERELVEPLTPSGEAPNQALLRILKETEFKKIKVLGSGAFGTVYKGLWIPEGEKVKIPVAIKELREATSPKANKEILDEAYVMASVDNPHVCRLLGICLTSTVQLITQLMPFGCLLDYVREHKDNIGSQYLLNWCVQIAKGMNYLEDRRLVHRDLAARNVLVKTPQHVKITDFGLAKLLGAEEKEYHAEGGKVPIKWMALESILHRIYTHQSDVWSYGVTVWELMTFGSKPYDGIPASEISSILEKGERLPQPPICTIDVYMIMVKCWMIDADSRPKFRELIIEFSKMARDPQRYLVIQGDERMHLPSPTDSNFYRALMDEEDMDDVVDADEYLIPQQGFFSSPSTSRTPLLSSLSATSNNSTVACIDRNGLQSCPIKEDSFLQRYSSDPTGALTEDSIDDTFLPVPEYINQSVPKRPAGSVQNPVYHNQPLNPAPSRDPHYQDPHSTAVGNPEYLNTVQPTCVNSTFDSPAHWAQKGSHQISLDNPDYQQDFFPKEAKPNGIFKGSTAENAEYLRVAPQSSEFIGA
Description: (§1) The measurement of an activity on wild-type and EGFR mutation enzyme of the compound of the present invention was experimented by utilizing the HTRF system sold by Cisbio, as follow.
(§2) The composition of the assay buffer used in the activity measurement was 50 mM Tris-HCl pH 7.5, 100 mM NaCl, 7.5 mM MgCl2, 3 mM KCl, 0.01% Tween 20, 0.1% BSA, 1 mM DTT. The enzymatic reaction was carried out hereto by using the peptide substrate labeled with ATP of […] concentration and biotin of […] concentration. The analysis of an EGFR activity inhibitory effect of the compound was carried out in accordance with the analysis reaction recipe below.
(§3) Component 1: […] of EGFR wild-type or mutation enzyme
(§4) Component 2: […] of compound solution
(§5) Component 3: […] of peptide labeled with ATP and biotin
(§6) The enzymatic reaction was initiated by mixing Component 1 and Component 2 first, and then, adding component 3. After the reaction for 2 hours at 37° C., […] of a measurement solution consisting of streptavidin-XL665 provided by Cisbio and anti-phosphotyrosine antibody labeled with europium was added to the enzymatic reaction solution and reacted for 1 hour at ambient temperature. […] The measurement values measured at the seven concentrations of the compound were analyzed by using the Prism program (version 5.01, Graphpad Software, Inc.), and IC50 value of the compound was calculated, which is an inhibitory ability indicator.

[2] = tested on: Ba/F3 EGFR del19/T790M cell line; test: CellTiter-Glo cell viability, Ba/F3 EGFR del19/T790M; assay type: cell-based; settings: read-out: Ba/F3 EGFR del19/T790M IC50
Description: (§7) The measurement of an activity on wild-type and mutation Ba/F3 EGFR cell line of the compound of the present invention was experimented by utilizing the CellTiter-Glo system sold by Promega, as follow. The CellTiter-Glo assay is a method for measuring the ATP present in cells in cell culture conditions to determine the cell viability.
(§8) The analysis of an EGFR inhibitory ability effect of the compound was carried out in accordance with the analysis reaction recipe below.
(§9) After the reaction of 72 hours, the plate treated with the compound was allowed to stand for 30 minutes at ambient temperature, and then, was further treated with 100 μl of the reagent, and was shaked for 10 minutes at ambient temperature.

FLT3(D835Y) = FLT3(D835Y) (Homo sapiens (Human), UniProt P36888, D835Y); test: KINOMEscan binding, FLT3(D835Y)
Description: (§10) The inhibitory activity on FLT kinase, such as wild-type FLT1, FLT3, FLT4, and FLT3 mutation forms, FLT3(D835H), FLT3(D835V), FLT3(D835Y), FLT3(ITD), FLT3(ITD,D835V), FLT3(ITD,F691L), FLT3(K663Q), FLT3(N841I), FLT3(R834Q) was measured.
(§11) FLT3 kinase inhibition was carried out by KINOMEscan method (DiscoverX Inc.). KINOMEscan method consists of the following processes. T7 bacteriophage labeled with FLT kinase was cultured by the infection to E. coli derived from BL21. After the infection of E. coli in the condition of 0.4 of MOI (multiplicity of infection), it was cultured for 90 to 150 minutes at 32° C. to lyse E. coli. The cell debris was removed by centrifugation and filtration, and the kinase protein present in the supernatant was secured. Additionally, the kinase protein was labeled with DNA for the qPCR measurement. The magnetic beads labeled with streptavidin were treated with the standard compound labeled with biotin and reacted for 30 minutes. The resulting beads were used as affinity beads for the measurement of a kinase activity. The binding reaction was initiated with mixing a kinase protein, the affinity beads bound with a ligand, and the compound. In this case, the used buffer solution was 20% SeaBlock, 0.17×PBS, 0.05% Tween 20, 6 mM DTT. […] The affinity of the compound to be tested was indirectly measured by Quantifying the eluted kinase by […].

EGFR del19/T790M = EGFR del19/T790M (Homo sapiens (Human), UniProt P00533, DEL746-750/T790M); test: HTRF enzyme assay, EGFR del19/T790M; assay type: biochemical; settings: recombinant enzyme
Sequence of EGFR del19/T790M (P00533 other isoform, or with tags, fused parts or gaps T790M/del 1-668/del 746-750 limits assumed): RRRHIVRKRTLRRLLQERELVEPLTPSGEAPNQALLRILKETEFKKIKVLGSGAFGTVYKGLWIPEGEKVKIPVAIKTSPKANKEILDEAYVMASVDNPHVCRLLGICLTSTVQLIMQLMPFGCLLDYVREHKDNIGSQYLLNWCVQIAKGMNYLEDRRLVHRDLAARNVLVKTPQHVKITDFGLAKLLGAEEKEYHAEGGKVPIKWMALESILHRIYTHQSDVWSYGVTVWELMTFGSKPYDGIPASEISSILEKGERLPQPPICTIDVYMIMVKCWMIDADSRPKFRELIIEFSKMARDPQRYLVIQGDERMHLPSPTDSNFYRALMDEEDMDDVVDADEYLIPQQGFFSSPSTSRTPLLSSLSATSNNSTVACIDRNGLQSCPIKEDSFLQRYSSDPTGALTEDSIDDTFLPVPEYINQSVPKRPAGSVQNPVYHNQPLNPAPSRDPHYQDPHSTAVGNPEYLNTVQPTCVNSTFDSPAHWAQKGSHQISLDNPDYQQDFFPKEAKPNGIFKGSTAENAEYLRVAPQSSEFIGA
Description: as §1, §2, §3, §4, §5, §6

FLT3(ITD, F691L) = FLT3(ITD, F691L) (Homo sapiens, UniProt P36888, F691L/ITD); test: KINOMEscan binding, FLT3(ITD, F691L)
Description: as §10, §11

[3] = tested on: Ba/F3 EGFR del19/T790M/C797S cell line; test: CellTiter-Glo cell viability, Ba/F3 EGFR del19/T790M/C797S; assay type: cell-based; settings: read-out: Ba/F3 EGFR del19/T790M/C797S IC50
Description: as §7, §8, §9

FLT3(D835H) = FLT3(D835H) (Homo sapiens (Human), UniProt P36888, D835H); test: KINOMEscan binding, FLT3(D835H)
Description: as §10, §11

FLT4 = FLT4 (Homo sapiens (Human), UniProt P35916); test: KINOMEscan binding, FLT4
Sequence of FLT4 (P35916 25-1363): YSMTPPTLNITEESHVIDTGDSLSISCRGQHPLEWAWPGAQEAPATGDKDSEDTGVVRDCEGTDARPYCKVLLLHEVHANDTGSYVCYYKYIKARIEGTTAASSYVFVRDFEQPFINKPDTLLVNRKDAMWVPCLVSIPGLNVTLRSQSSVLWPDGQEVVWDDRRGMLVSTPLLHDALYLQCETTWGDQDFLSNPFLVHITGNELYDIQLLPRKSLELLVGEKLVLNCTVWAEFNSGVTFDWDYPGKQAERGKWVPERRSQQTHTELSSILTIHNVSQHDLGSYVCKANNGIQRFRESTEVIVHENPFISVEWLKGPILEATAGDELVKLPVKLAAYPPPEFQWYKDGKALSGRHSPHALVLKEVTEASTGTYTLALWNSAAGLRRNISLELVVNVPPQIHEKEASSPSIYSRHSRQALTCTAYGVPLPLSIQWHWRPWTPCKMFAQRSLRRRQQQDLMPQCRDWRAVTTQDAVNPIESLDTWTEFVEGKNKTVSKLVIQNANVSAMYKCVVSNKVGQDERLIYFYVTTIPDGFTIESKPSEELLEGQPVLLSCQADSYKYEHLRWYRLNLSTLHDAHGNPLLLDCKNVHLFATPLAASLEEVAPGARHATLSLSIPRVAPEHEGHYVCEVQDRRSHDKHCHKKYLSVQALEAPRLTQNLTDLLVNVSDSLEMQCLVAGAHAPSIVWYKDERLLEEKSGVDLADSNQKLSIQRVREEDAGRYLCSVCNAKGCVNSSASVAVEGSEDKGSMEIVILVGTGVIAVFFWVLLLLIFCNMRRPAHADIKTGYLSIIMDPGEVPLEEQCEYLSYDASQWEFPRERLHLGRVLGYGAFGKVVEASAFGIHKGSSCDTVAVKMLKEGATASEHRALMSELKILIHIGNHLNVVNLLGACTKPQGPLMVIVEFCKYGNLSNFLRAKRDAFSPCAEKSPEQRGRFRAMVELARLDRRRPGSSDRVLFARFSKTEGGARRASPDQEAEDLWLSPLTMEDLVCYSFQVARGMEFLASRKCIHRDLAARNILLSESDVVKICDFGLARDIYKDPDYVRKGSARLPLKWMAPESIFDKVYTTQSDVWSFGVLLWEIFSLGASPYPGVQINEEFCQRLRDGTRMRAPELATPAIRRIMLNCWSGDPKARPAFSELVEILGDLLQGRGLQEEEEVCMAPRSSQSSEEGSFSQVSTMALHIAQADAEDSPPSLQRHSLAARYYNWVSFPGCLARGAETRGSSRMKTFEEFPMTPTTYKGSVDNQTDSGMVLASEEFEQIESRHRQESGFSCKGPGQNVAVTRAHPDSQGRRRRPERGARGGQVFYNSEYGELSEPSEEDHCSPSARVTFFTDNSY
Description: as §10, §11

FLT3(N841I) = FLT3(N841I) (Homo sapiens (Human), UniProt P36888, N841I); test: KINOMEscan binding, FLT3(N841I)
Description: as §10, §11

FLT3(R834Q) = FLT3(R834Q) (Homo sapiens (Human), UniProt P36888, R834Q); test: KINOMEscan binding, FLT3(R834Q)
Description: as §10, §11

FLT3(D835V) = FLT3(D835V) (Homo sapiens (Human), UniProt P36888, D835V); test: KINOMEscan binding, FLT3(D835V)
Description: as §10, §11

IC50 ([2]; CellTiter-Glo, 72 hours) [nM] | IC50 ([3]; CellTiter-Glo, 72 hours) [nM] | SMILES | activity in pERK, pAKT, pS6 (EGFR sub-signal) when administered alone [1] | sub-signal activity when administered in combination with cetuximab [1] | sub-signal activity compared with brigatinib in combination with cetuximab [1] | IC50 (EGFR wt.) [nM] | IC50 ([2]; 72 h) [nM] | Kd (FLT3(D835Y)) [nM] | IC50 (EGFR del19/T790M) [nM] | Kd (FLT3(ITD, F691L)) [nM] | IC50 ([3]; 72 h) [nM] | Kd (FLT3(D835H)) [nM] | Kd (FLT4) [nM] | Kd (FLT3(N841I)) [nM] | Kd (FLT3(R834Q)) [nM] | Kd (FLT3(D835V)) [nM]
– | – | COc1cc(N2CCC(N3CCN(C)CC3)CC2)ccc1Nc1ncc(Cl)c(Nc2ccccc2NS(C)(=O)=O)n1 [Example 10, N-(2-((5-chloro-2-((2-methoxy-4-(4-(4-methylpiperazin-1-yl)piperidin-1-yl)phenyl)amino)pyrimidin-4-yl)amino)phenyl)methanesulfonamide] | concentration-dependent activity | superior activity | superior activity | 430 | 99 | 4.2 | 4 | 1.1 | 63 | 38 | 200 | 6.5 | 33 | 0.29
31 | 38 | COc1cc(N2CCC(N(C)C)CC2)ccc1Nc1ncc(Cl)c(Nc2ccccc2NS(C)(=O)=O)n1 [Example 11, N-(2-((5-chloro-2-((4-(4-(dimethylamino)piperidin-1-yl)-2-methoxyphenyl)amino)pyrimidin-4-yl)amino)phenyl)methanesulfonamide] | concentration-dependent activity | superior activity | superior activity | 280 | – | 1.5 | 3.1 | 0.27 | – | 1.8 | 81 | 3.8 | 19 | 0.082
